In PubChem BioAssay AID1259407 (Chemical Carcinogenesis Research Information System (CCRIS), 2018):
Activity calls are given as the source filed them. The rule behind the calls is not given here.

Tested on: CCRIS mutagenicity, Ames/micronucleus/aberration tests
Experiment: CCRIS mutagenicity studies

O=C1C=CC(=O)c2ccccc21
mutagenic call (End Point: In vitro chromosomal aberrations, Test System: Chinese hamster lung (CHL/IU) cells, Metabolic Activation: Rat, Liver, S9, Phenobarbital and 5,6-benzoflavone): active; positive (structural changes). toxic at 0.014 mg/ml.
mutagenic call (Test System: AMES SALMONELLA TYPHIMURIUM, Strain/Indicator: TA97, Metabolic Activation: NONE, Method: PREINCUBATION): inactive; negative
mutagenic call (Test System: AMES SALMONELLA TYPHIMURIUM, Strain/Indicator: TA97, Metabolic Activation: NONE, Method: STANDARD PLATE): inactive; negative
mutagenic call (Test System: AMES SALMONELLA TYPHIMURIUM, Strain/Indicator: TA97, Metabolic Activation: RAT, LIVER, S-9, PCB, Method: STANDARD PLATE): inactive; negative
mutagenic call (Test System: AMES SALMONELLA TYPHIMURIUM, Strain/Indicator: TA97, Metabolic Activation: RAT, LIVER, S-9, PHENOBARBITAL AND 5,6-BENZOFLAVONE, Method: PREINCUBATION): active; positive
mutagenic call (Test System: AMES SALMONELLA TYPHIMURIUM, Strain/Indicator: TA98, Metabolic Activation: NONE, Method: PREINCUBATION): inactive; negative
mutagenic call (Test System: AMES SALMONELLA TYPHIMURIUM, Strain/Indicator: TA98, Metabolic Activation: NONE, Method: STANDARD PLATE): inactive; negative
mutagenic call (Test System: AMES SALMONELLA TYPHIMURIUM, Strain/Indicator: TA98, Metabolic Activation: RAT, LIVER, S-9, PCB, Method: STANDARD PLATE): inactive; negative
mutagenic call (Test System: AMES SALMONELLA TYPHIMURIUM, Strain/Indicator: TA98, Metabolic Activation: RAT, LIVER, S-9, PHENOBARBITAL AND 5,6-BENZOFLAVONE, Method: PREINCUBATION): inactive; negative
mutagenic call (Test System: AMES SALMONELLA TYPHIMURIUM, Strain/Indicator: TA100, Metabolic Activation: NONE, Method: PREINCUBATION): active; positive
mutagenic call (Test System: AMES SALMONELLA TYPHIMURIUM, Strain/Indicator: TA100, Metabolic Activation: NONE, Method: STANDARD PLATE): inactive; negative
mutagenic call (Test System: AMES SALMONELLA TYPHIMURIUM, Strain/Indicator: TA100, Metabolic Activation: RAT, LIVER, S-9, PCB, Method: STANDARD PLATE): inactive; negative
mutagenic call (Test System: AMES SALMONELLA TYPHIMURIUM, Strain/Indicator: TA100, Metabolic Activation: RAT, LIVER, S-9, PHENOBARBITAL AND 5,6-BENZOFLAVONE, Method: PREINCUBATION): active; positive
mutagenic call (Test System: AMES SALMONELLA TYPHIMURIUM, Strain/Indicator: TA102, Metabolic Activation: NONE, Method: PREINCUBATION): inactive; negative
mutagenic call (Test System: AMES SALMONELLA TYPHIMURIUM, Strain/Indicator: TA102, Metabolic Activation: RAT, LIVER, S-9, PHENOBARBITAL AND 5,6-BENZOFLAVONE, Method: PREINCUBATION): active; positive
mutagenic call (Test System: AMES SALMONELLA TYPHIMURIUM, Strain/Indicator: TA104, Metabolic Activation: NONE, Method: PREINCUBATION): active; positive
mutagenic call (Test System: AMES SALMONELLA TYPHIMURIUM, Strain/Indicator: TA104, Metabolic Activation: RAT, LIVER, S-9, PHENOBARBITAL AND 5,6-BENZOFLAVONE, Method: PREINCUBATION): active; positive
mutagenic call (Test System: AMES SALMONELLA TYPHIMURIUM, Strain/Indicator: TA1535, Metabolic Activation: NONE, Method: PREINCUBATION): inactive; negative
mutagenic call (Test System: AMES SALMONELLA TYPHIMURIUM, Strain/Indicator: TA1535, Metabolic Activation: RAT, LIVER, S-9, PHENOBARBITAL AND 5,6-BENZOFLAVONE, Method: PREINCUBATION): inactive; negative
mutagenic call (Test System: AMES SALMONELLA TYPHIMURIUM, Strain/Indicator: TA1537, Metabolic Activation: NONE, Method: PREINCUBATION): inactive; negative
mutagenic call (Test System: AMES SALMONELLA TYPHIMURIUM, Strain/Indicator: TA1537, Metabolic Activation: RAT, LIVER, S-9, PHENOBARBITAL AND 5,6-BENZOFLAVONE, Method: PREINCUBATION): inactive; negative
mutagenic call (Test System: AMES SALMONELLA TYPHIMURIUM, Strain/Indicator: TA1538, Metabolic Activation: NONE, Method: PREINCUBATION): inactive; negative
mutagenic call (Test System: AMES SALMONELLA TYPHIMURIUM, Strain/Indicator: TA1538, Metabolic Activation: RAT, LIVER, S-9, PHENOBARBITAL AND 5,6-BENZOFLAVONE, Method: PREINCUBATION): inactive; negative
mutagenic call (Test System: AMES SALMONELLA TYPHIMURIUM, Strain/Indicator: TA2637, Metabolic Activation: NONE, Method: PREINCUBATION): active; positive
mutagenic call (Test System: AMES SALMONELLA TYPHIMURIUM, Strain/Indicator: TA2637, Metabolic Activation: RAT, LIVER, S-9, PHENOBARBITAL AND 5,6-BENZOFLAVONE, Method: PREINCUBATION): active; positive
mutagenic call (Test System: Ames Salmonella typhimurium, Strain/Indicator: TA97, Metabolic Activation: None, Method: Preincubation): inactive; negative
mutagenic call (Test System: Ames Salmonella typhimurium, Strain/Indicator: TA97, Metabolic Activation: Rat, Liver, S9, Aroclor 1254, Method: Preincubation): inactive; negative
mutagenic call (Test System: Ames Salmonella typhimurium, Strain/Indicator: TA98, Metabolic Activation: None, Method: Preincubation): inactive; negative
mutagenic call (Test System: Ames Salmonella typhimurium, Strain/Indicator: TA98, Metabolic Activation: Rat, Liver, S9, Aroclor 1254, Method: Preincubation): inactive; negative
mutagenic call (Test System: Ames Salmonella typhimurium, Strain/Indicator: TA100, Metabolic Activation: None, Method: Preincubation): inactive; negative
mutagenic call (Test System: Ames Salmonella typhimurium, Strain/Indicator: TA100, Metabolic Activation: Rat, Liver, S9, Aroclor 1254, Method: Preincubation): inactive; negative
mutagenic call (Test System: Ames Salmonella typhimurium, Strain/Indicator: TA102, Metabolic Activation: None, Method: Preincubation): inactive; negative
mutagenic call (Test System: Ames Salmonella typhimurium, Strain/Indicator: TA102, Metabolic Activation: Rat, Liver, S9, Aroclor 1254, Method: Preincubation): inactive; negative
